Drawing on ChEMBL document CHEMBL1132527, “Synthesis, structural characterization and antitumor activity evaluations of copper complex with tetraazamacrocyclic ligand” (Bioorg Med Chem Lett, 1999), this text covers inhibition for 1 substance.

Common to all, as to format: functional, cell-based
For assay [1], the system named is BEL-7404 tumor cell line. Briefly: In vitro antitumor activity against BEL-7404 tumor cell lines at 10e-6 mol/L conentation. To be noted: Homo sapiens.
The test system of assay [2] is BEL-7404 tumor cell line. Briefly: In vitro antitumor activity against BEL-7404 tumor cell lines at 10e-7 mol/L conentation. The conditions noted are these: Homo sapiens.
In assay [3] the test system is BEL-7404 tumor cell line. Kind of assay: In vitro antitumor activity against BEL-7404 tumor cell lines at 10e-5 mol/L conentation. The conditions noted are these: Homo sapiens.
The subject of assay [4] is P388. Kind of assay: In vitro antitumor activity against P388 tumor cell lines at 10e-5 mol/L conentation. To be noted: Mus musculus.
Assay [5] relates to P388. Kind of assay: In vitro antitumor activity against P388 tumor cell lines at 10e-4 mol/L conentation. The conditions noted are these: Mus musculus.
The test system of assay [6] is BEL-7404 tumor cell line. Briefly: In vitro antitumor activity against BEL-7404 tumor cell lines at 10e-8 mol/L conentation. The conditions noted are these: Homo sapiens.
For assay [7], the system named is BEL-7404 tumor cell line. Briefly: In vitro antitumor activity against BEL-7404 tumor cell lines at 10e-4 mol/L conentation. The conditions noted are these: Homo sapiens.

Take “Copper complex with 1,4,7,10-tetrakis(2-cyanolethyl-)-l,4,7,10-tetraazacyclododecane”: the inhibition (in general, the drop in the measured response relative to a control, in per cent) in the assay with BEL-7404 tumor cell line [1] came to 78%; in the assay with BEL-7404 tumor cell line [2] it was 5.6%; with BEL-7404 tumor cell line [3], 75.6%; with P388 [4], 96.4%; in the assay with P388 [5], 100%; in the assay with BEL-7404 tumor cell line [6], 10%. For the same substance, the inhibition with BEL-7404 tumor cell line [7] turned out to be 63.3%.
